Reference: PubChem BioAssay (NCI)
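A five-concentration, 48-hour dose response in 96-well plates underlies each endpoint, interpolated linearly between surrounding concentrations. TGI: concentration producing complete growth inhibition.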

Experiments:
Test in all cases: NCI tumour cell line growth inhibition, 48 h
UACC-62 melanoma = tested on: UACC-62 melanoma
RPMI-8226 leukemia = tested on: RPMI-8226 leukemia
HL-60(TB) leukemia = tested on: HL-60(TB) leukemia
SNB-19 CNS = tested on: SNB-19 CNS
TK-10 renal = tested on: TK-10 renal
A549 NSCLC = tested on: A549 NSCLC
IGROV1 ovarian = tested on: IGROV1 ovarian
HT29 colon = tested on: HT29 colon
OVCAR-3 ovarian = tested on: OVCAR-3 ovarian
OVCAR-4 ovarian = tested on: OVCAR-4 ovarian
COLO 205 colon = tested on: COLO 205 colon
MDA-N = tested on: MDA-N
MDA-MB-231 breast = tested on: MDA-MB-231 breast
OVCAR-8 ovarian = tested on: OVCAR-8 ovarian
NCI/ADR-RES ovarian = tested on: NCI/ADR-RES ovarian
UACC-257 melanoma = tested on: UACC-257 melanoma
SK-OV-3 ovarian = tested on: SK-OV-3 ovarian
SW-620 colon = tested on: SW-620 colon
U251 CNS = tested on: U251 CNS
SN12C renal = tested on: SN12C renal
T-47D breast = tested on: T-47D breast
HS 578T breast = tested on: HS 578T breast
HCT-116 colon = tested on: HCT-116 colon
UO-31 renal = tested on: UO-31 renal
RXF 393 renal = tested on: RXF 393 renal
M14 melanoma = tested on: M14 melanoma
MDA-MB-435 = tested on: MDA-MB-435
NCI-H226 lung = tested on: NCI-H226 lung
DU-145 prostate = tested on: DU-145 prostate
BT-549 breast = tested on: BT-549 breast
SK-MEL-28 melanoma = tested on: SK-MEL-28 melanoma
SK-MEL-5 melanoma = tested on: SK-MEL-5 melanoma
MOLT-4 leukemia = tested on: MOLT-4 leukemia
SR leukemia = tested on: SR leukemia
786-0 renal = tested on: 786-0 renal
PC-3 prostate = tested on: PC-3 prostate
MCF7 breast = tested on: MCF7 breast
HOP-62 NSCLC = tested on: HOP-62 NSCLC
HCT-15 colon = tested on: HCT-15 colon
SK-MEL-2 melanoma = tested on: SK-MEL-2 melanoma
LOX IMVI melanoma = tested on: LOX IMVI melanoma
A498 renal = tested on: A498 renal
SF-268 CNS = tested on: SF-268 CNS
MALME-3M melanoma = tested on: MALME-3M melanoma
K-562 leukemia = tested on: K-562 leukemia
KM12 colon = tested on: KM12 colon
NCI-H23 lung = tested on: NCI-H23 lung
CCRF-CEM leukemia = tested on: CCRF-CEM leukemia
NCI-H460 lung = tested on: NCI-H460 lung
SF-539 CNS = tested on: SF-539 CNS
SNB-75 CNS = tested on: SNB-75 CNS
EKVX NSCLC = tested on: EKVX NSCLC
SF-295 CNS = tested on: SF-295 CNS
OVCAR-5 ovarian = tested on: OVCAR-5 ovarian
HCC-2998 colon = tested on: HCC-2998 colon
CAKI-1 renal = tested on: CAKI-1 renal
NCI-H522 lung = tested on: NCI-H522 lung
ACHN renal = tested on: ACHN renal
HOP-92 NSCLC = tested on: HOP-92 NSCLC

Compound: COC(=O)c1c(O)ccc2c1c1c(n2Cc2ccc(Cl)cc2Cl)C(=O)c2ccccc2C1
- TGI (UACC-62 melanoma): > 100 µM
- TGI (RPMI-8226 leukemia): 49 µM
- TGI (HL-60(TB) leukemia): > 100 µM
- TGI (SNB-19 CNS): > 100 µM
- TGI (TK-10 renal): > 100 µM
- TGI (A549 NSCLC): > 100 µM
- TGI (IGROV1 ovarian): > 100 µM
- TGI (HT29 colon): > 100 µM
- TGI (OVCAR-3 ovarian): > 100 µM
- TGI (OVCAR-4 ovarian): 70.6 µM
- TGI (COLO 205 colon): > 100 µM
- TGI (MDA-N): > 100 µM
- TGI (MDA-MB-231 breast): > 100 µM
- TGI (OVCAR-8 ovarian): > 100 µM
- TGI (NCI/ADR-RES ovarian): > 100 µM
- TGI (UACC-257 melanoma): > 100 µM
- TGI (SK-OV-3 ovarian): > 100 µM
- TGI (SW-620 colon): > 100 µM
- TGI (U251 CNS): > 100 µM
- TGI (SN12C renal): 55.2 µM
- TGI (T-47D breast): > 100 µM
- TGI (HS 578T breast): > 100 µM
- TGI (HCT-116 colon): > 100 µM
- TGI (UO-31 renal): > 100 µM
- TGI (RXF 393 renal): 78.8 µM
- TGI (M14 melanoma): > 100 µM
- TGI (MDA-MB-435): > 100 µM
- TGI (NCI-H226 lung): 73.2 µM
- TGI (DU-145 prostate): > 100 µM
- TGI (BT-549 breast): > 100 µM
- TGI (SK-MEL-28 melanoma): > 100 µM
- TGI (SK-MEL-5 melanoma): > 100 µM
- TGI (MOLT-4 leukemia): > 100 µM
- TGI (SR leukemia): > 100 µM
- TGI (786-0 renal): > 100 µM
- TGI (PC-3 prostate): 73.3 µM
- TGI (MCF7 breast): 89.9 µM
- TGI (HOP-62 NSCLC): > 100 µM
- TGI (HCT-15 colon): > 100 µM
- TGI (SK-MEL-2 melanoma): > 100 µM
- TGI (LOX IMVI melanoma): 61.9 µM
- TGI (A498 renal): > 100 µM
- TGI (SF-268 CNS): > 100 µM
- TGI (MALME-3M melanoma): > 100 µM
- TGI (K-562 leukemia): > 100 µM
- TGI (KM12 colon): > 100 µM
- TGI (NCI-H23 lung): > 100 µM
- TGI (CCRF-CEM leukemia): 71.3 µM
- TGI (NCI-H460 lung): > 100 µM
- TGI (SF-539 CNS): > 100 µM
- TGI (SNB-75 CNS): 58.7 µM

Compound: CN(C)/C=N/n1c2ccccc2c2ccccc21
- TGI (UACC-62 melanoma): > 100 µM
- TGI (EKVX NSCLC): > 100 µM
- TGI (RPMI-8226 leukemia): > 100 µM
- TGI (SF-295 CNS): > 100 µM
- TGI (HL-60(TB) leukemia): > 100 µM
- TGI (SNB-19 CNS): > 100 µM
- TGI (TK-10 renal): > 100 µM
- TGI (OVCAR-5 ovarian): > 100 µM
- TGI (A549 NSCLC): > 100 µM
- TGI (IGROV1 ovarian): > 100 µM
- TGI (HT29 colon): > 100 µM
- TGI (OVCAR-3 ovarian): > 100 µM
- TGI (OVCAR-4 ovarian): > 100 µM
- TGI (COLO 205 colon): > 100 µM
- TGI (MDA-N): > 100 µM
- TGI (MDA-MB-231 breast): > 100 µM
- TGI (OVCAR-8 ovarian): > 100 µM
- TGI (NCI/ADR-RES ovarian): > 100 µM
- TGI (UACC-257 melanoma): > 100 µM
- TGI (SK-OV-3 ovarian): > 100 µM
- TGI (SW-620 colon): > 100 µM
- TGI (U251 CNS): > 100 µM
- TGI (SN12C renal): > 100 µM
- TGI (T-47D breast): > 100 µM
- TGI (HS 578T breast): > 100 µM
- TGI (HCT-116 colon): > 100 µM
- TGI (UO-31 renal): > 100 µM
- TGI (RXF 393 renal): > 100 µM
- TGI (M14 melanoma): > 100 µM
- TGI (MDA-MB-435): > 100 µM
- TGI (NCI-H226 lung): > 100 µM
- TGI (DU-145 prostate): > 100 µM
- TGI (HCC-2998 colon): > 100 µM
- TGI (SK-MEL-28 melanoma): > 100 µM
- TGI (SK-MEL-5 melanoma): > 100 µM
- TGI (CAKI-1 renal): 75.8 µM
- TGI (MOLT-4 leukemia): > 100 µM
- TGI (SR leukemia): > 100 µM
- TGI (786-0 renal): > 100 µM
- TGI (NCI-H522 lung): > 100 µM
- TGI (PC-3 prostate): > 100 µM
- TGI (MCF7 breast): > 100 µM
- TGI (HOP-62 NSCLC): > 100 µM
- TGI (HCT-15 colon): > 100 µM
- TGI (SK-MEL-2 melanoma): > 100 µM
- TGI (LOX IMVI melanoma): > 100 µM
- TGI (A498 renal): > 100 µM
- TGI (SF-268 CNS): > 100 µM
- TGI (MALME-3M melanoma): > 100 µM
- TGI (K-562 leukemia): > 100 µM
- TGI (ACHN renal): > 100 µM
- TGI (KM12 colon): > 100 µM
- TGI (NCI-H23 lung): > 100 µM
- TGI (CCRF-CEM leukemia): > 100 µM
- TGI (NCI-H460 lung): > 100 µM
- TGI (SF-539 CNS): > 100 µM
- TGI (SNB-75 CNS): > 100 µM

Compound: CCN(CC)C(=S)SS(=O)(=O)c1ccc(F)cc1
- TGI (UACC-62 melanoma): > 100 µM
- TGI (EKVX NSCLC): > 100 µM
- TGI (RPMI-8226 leukemia): 55.5 µM
- TGI (SF-295 CNS): > 100 µM
- TGI (SNB-19 CNS): > 100 µM
- TGI (TK-10 renal): > 100 µM
- TGI (OVCAR-5 ovarian): > 100 µM
- TGI (HT29 colon): 53.9 µM
- TGI (OVCAR-3 ovarian): > 100 µM
- TGI (OVCAR-4 ovarian): > 100 µM
- TGI (COLO 205 colon): > 100 µM
- TGI (MDA-N): > 100 µM
- TGI (MDA-MB-231 breast): > 100 µM
- TGI (OVCAR-8 ovarian): > 100 µM
- TGI (NCI/ADR-RES ovarian): > 100 µM
- TGI (UACC-257 melanoma): 87.3 µM
- TGI (SK-OV-3 ovarian): > 100 µM
- TGI (SW-620 colon): 53.7 µM
- TGI (U251 CNS): 73.4 µM
- TGI (SN12C renal): > 100 µM
- TGI (T-47D breast): > 100 µM
- TGI (HS 578T breast): > 100 µM
- TGI (HCT-116 colon): > 100 µM
- TGI (UO-31 renal): 72.5 µM
- TGI (RXF 393 renal): 40.4 µM
- TGI (M14 melanoma): 60.5 µM
- TGI (MDA-MB-435): > 100 µM
- TGI (NCI-H226 lung): > 100 µM
- TGI (DU-145 prostate): > 100 µM
- TGI (BT-549 breast): > 100 µM
- TGI (HCC-2998 colon): > 100 µM
- TGI (SK-MEL-28 melanoma): 30.5 µM
- TGI (SK-MEL-5 melanoma): > 100 µM
- TGI (CAKI-1 renal): > 100 µM
- TGI (SR leukemia): 57.5 µM
- TGI (786-0 renal): > 100 µM
- TGI (NCI-H522 lung): 0.505 µM
- TGI (HOP-92 NSCLC): > 100 µM
- TGI (HOP-62 NSCLC): > 100 µM
- TGI (HCT-15 colon): > 100 µM
- TGI (SK-MEL-2 melanoma): > 100 µM
- TGI (LOX IMVI melanoma): 41.7 µM
- TGI (A498 renal): > 100 µM
- TGI (SF-268 CNS): > 100 µM
- TGI (MALME-3M melanoma): 68.4 µM
- TGI (K-562 leukemia): > 100 µM
- TGI (ACHN renal): > 100 µM
- TGI (KM12 colon): > 100 µM
- TGI (NCI-H23 lung): > 100 µM
- TGI (NCI-H460 lung): > 100 µM
- TGI (SF-539 CNS): 52.4 µM
